Test results as given in publication PMC10101059, “Rational Design of Stapled Antimicrobial Peptides to Enhance Stability and In Vivo Potency against Polymicrobial Sepsis” (Microbiology Spectrum, 2023).
Values after ≈ are worked out from the molar mass of the structure shown. Where two headings read alike, the source gives them in different places. Bridge positions count the residues as written; N and C are the ends. Square brackets hold non-standard residues; d marks the D form. Peptide text beside a SMILES is read from it. R5 = C=CCCC[C@@](C)(N)C(=O)O

Tests used:
[1] = tested on: MDR A. baumannii 1019; test: microbe, parasite or virus in culture; type: cell-based, Acinetobacter baumannii
Method: (§1) The antimicrobial assay was performed according to a modified National Committee for Clinical Laboratory Standards (NCCLS) protocol ([41], [42]). Briefly, 5 × 10^5 CFU/mL bacterial cells were treated with various peptide concentrations and incubated at 37 ± 2°C for 16 to 20 h. The lowest concentration with clear wells was recorded as the MIC for each test molecule. The clear wells were further plated in Mueller-Hinton agar (MHA) plates, followed by incubation overnight at 37 ± 2°C. After plating, the lowest concentration at which no growth was observed was recorded as the MBC. For the serum sensitivity assay, the antimicrobial activity of the peptides was tested in medium containing 50% human serum ([43], [44]).

[2] = tested on: MDR A. baumannii 1033; test: microbe, parasite or virus in culture; type: cell-based, Acinetobacter baumannii
Method: as §1

[3] = tested on: MDR A. baumannii 14B0091; test: microbe, parasite or virus in culture; type: cell-based, Acinetobacter baumannii
Method: as §1

[4] = tested on: MDR A. baumannii 1702; test: microbe, parasite or virus in culture; type: cell-based, Acinetobacter baumannii
Method: as §1

[5] = tested on: MDR A. baumannii 2088; test: microbe, parasite or virus in culture; type: cell-based, Acinetobacter baumannii; conditions: for MBC: read-out: MBC; for MIC: read-out: MIC
Method: as §1

[6] = tested on: MDR A. baumannii 2962; test: microbe, parasite or virus in culture; type: cell-based, Acinetobacter baumannii
Method: as §1

[7] = tested on: MDR A. baumannii 2997; test: microbe, parasite or virus in culture; type: cell-based, Acinetobacter baumannii
Method: as §1

[8] = tested on: MDR A. baumannii 2998; test: microbe, parasite or virus in culture; type: cell-based, Acinetobacter baumannii; conditions: for MBC: read-out: MBC
Method: as §1

[9] = tested on: MDR A. baumannii 3618; test: microbe, parasite or virus in culture; type: cell-based, Acinetobacter baumannii
Method: as §1

[10] = tested on: MDR A. baumannii 921; test: microbe, parasite or virus in culture; type: cell-based, Acinetobacter baumannii
Method: as §1

[11] = tested on: A. baumannii biofilm; test: Biofilm rupture assay; type: cell-based, Acinetobacter baumannii; conditions: even at 4× MIC
Method: (ii) Biofilm rupture assay. Fifty μL of A. baumannii bacterial strains suspension cultures (2 × 10^6 CFU/mL) were plated and incubated in a shaking incubator for 24 h. Then, the wells were washed with PBS and treated with 100 μL of peptide/drug at various concentrations. The plates were incubated for 24 h and then washed with PBS. The wells were treated with 100% methanol for 15 min, and the residual solution was washed followed by drying at room temperature. After the wells were dry, 100 μL of 0.02% crystal violet solution was added, followed by incubation for 30 min at room temperature. The wells were then washed with water and dried for an appropriate length of time. Once the wells were dry, 100 μL of 33% acetic acid was added to the wells and they were incubated at room temperature for 1 h. Absorbance was recorded at 595 nm ([55]).

[12] = tested on: CLP-induced polymicrobial sepsis in C57BL/6 female mice; test: CLP-induced polymicrobial sepsis model; type: in vivo; conditions: for kidney (BUN, CRE) and liver function (GOT, GPT): 24 h after CLP; for survival: 7 days post-operation, i.p. 30 min after CLP, TP4-3 9 mg/kg, meropenem 10 mg/kg, combination 9 mg/kg TP4-3 and 5 mg/kg meropenem, CLP + saline 12.5%
Method: (i) CLP surgery. Cecal ligation and puncture surgery was performed to induce polymicrobial sepsis according to a previously described method ([37]). Female C57BL/6 mice at 6 to 8 weeks of age (weight = 18 to 22 g) were anesthetized by intraperitoneal administration of Zoletil (50 mg/kg). Then, a 1-cm incision was made at the abdomen to expose the cecum. The CLP procedure was performed with a 23-G needle. […] A sham group was subjected to abdomen incision without CLP and treated with saline by intraperitoneal injection. After the treatments, percent survival was used as a measure of test-candidate efficacy ([37]).
(ii) Estimation of bacterial load, cytokine expression, and toxicity profile after CLP and treatment. […] Blood samples were taken in collection tubes. Peritoneal fluid was collected in a sterilized 1.5-mL centrifuge tube. Organs, including the liver, lung, spleen, and kidney, were harvested, weighed, and placed in 1-mL sterile PBS for homogenization with a tissue lyzer (Tissuelyzer II, Qiagen, Dusseldorf, Germany). The homogenates, blood, and peritoneal fluid were diluted serially and plated on Mueller-Hinton broth agar plates. The plates were incubated at 37°C overnight. Each tissue was evaluated by measuring CFU/g ([37]).
To evaluate kidney and liver function, blood samples (n = 5 per group) were tested for ALT (GPT), AST (GOT), CRE, and BUN using a dry-chemistry analyzer as described above. Mouse serum was extracted to assess (n = 5 per group) expression of cytokines (Thermo Fisher Scientific, Waltham, MA) as a measure of inflammatory response ([37]).

[13] = tested on: NDM1 K. pneumoniae; test: microbe, parasite or virus in culture; type: cell-based, Klebsiella pneumoniae; conditions: for MIC: read-out: Single drug treatment MIC; for TP4-3 and meropenem combined MIC: MIC of each agent in combination
[14] = tested on: E. aerogenes; test: microbe, parasite or virus in culture; type: cell-based, Enterobacter aerogenes; conditions: for MIC: read-out: Single drug treatment MIC; for TP4-3 and meropenem combined MIC: MIC of each agent in combination
[15] = tested on: E. coli; test: microbe, parasite or virus in culture; type: cell-based, Escherichia coli; conditions: for MIC: read-out: Single drug treatment MIC; for TP4-3 and meropenem combined MIC: MIC of each agent in combination
[16] = tested on: S enterica; test: Checkerboard microdilution assay (FICI); type: cell-based, Salmonella enterica; conditions: for TP4-3 and meropenem combined MIC: MIC of each agent in combination, TP4-3 and M
[17] = tested on: P. aeruginosae; test: microbe, parasite or virus in culture; type: cell-based, Pseudomonas aeruginosa; conditions: for TP4-3 and meropenem combined MIC: MIC of each agent in combination; for MIC: read-out: Single drug treatment MIC
[18] = Acinetobacter baumannii, MHB medium
[19] = HS, MH medium containing 50% human serum
[20] = Acinetobacter baumannii, MHB medium, read-out: MBC
[21] = Acinetobacter baumannii, MHB medium, read-out: MIC
[22] = HS, MH medium containing 50% human serum, read-out: MBC
[23] = HS, MH medium containing 50% human serum, read-out: MIC
[24] = 24 h, ELISA, compared to saline-treated group
[25] = 72 h compared to 24 h after treatment

C[C@@H](O)[C@H]1C(=O)N2C(C(=O)O)=C(S[C@@H]3CN[C@H](C(=O)N(C)C)C3)[C@H](C)[C@H]12 [Meropenem]
MBC [1, 18]: > 25 µM
MIC [1, 18]: > 25 µM
MBC [1, 19]: >25 µM
MIC [1, 19]: >25 µM
MBC [2, 20]: > 25 µM
MIC [2, 21]: > 25 µM
MBC [2, 22]: >25 µM
MIC [2, 23]: >25 µM
MBC [3, 18]: > 25 µM
MIC [3, 18]: > 25 µM
MBC [3, 19]: >25 µM
MIC [3, 19]: >25 µM
MBC [4, 20]: > 25 µM
MIC [4, 21]: > 25 µM
MBC [4, 22]: >25 µM
MIC [4, 23]: >25 µM
MBC [5, 18]: > 25 µM
MIC [5, 18]: > 25 µM
MBC [5, 19]: >25 µM
MIC [5, 19]: >25 µM
MBC [6, 18]: > 25 µM
MIC [6, 18]: > 25 µM
MBC [6, 19]: >25 µM
MIC [6, 19]: >25 µM
MBC [7, 20]: > 25 µM
MIC [7, 21]: > 25 µM
MBC [7, 22]: >25 µM
MIC [7, 23]: >25 µM
MIC [8, 18]: > 25 µM
MBC [8, 18]: > 25 µM
MIC [8, 19]: >25 µM
MBC [8, 19]: >25 µM
MBC [9, 18]: > 25 µM
MIC [9, 18]: > 25 µM
MBC [9, 19]: >25 µM
MIC [9, 19]: >25 µM
MBC [10, 18]: > 25 µM
MIC [10, 18]: > 25 µM
MBC [10, 19]: >25 µM
MIC [10, 19]: >25 µM
mature biofilm rupture [11]: minor potential for causing biofilm rupture
kidney (BUN, CRE) and liver function (GOT, GPT) [12]: poor liver function profiles
survival [12]: 37.5%
MIC ([13]; Klebsiella pneumoniae): 400 µM (≈ 153 µg/mL)
TP4-3 and meropenem combined MIC ([13]; TP4-3 and M): 200 µM
MIC ([14]; Klebsiella aerogenes): 0.39 µM (≈ 0.15 µg/mL)
TP4-3 and meropenem combined MIC ([14]; TP4-3 and M): 0.097 µM
MIC ([15]; Escherichia coli): 3.13 µM (≈ 1.2 µg/mL)
TP4-3 and meropenem combined MIC ([15]; TP4-3 and M): 0.097 µM
TP4-3 and meropenem combined MIC [16]: 0.19 µM
MIC ([16]; Salmonella enterica, read-out: Single drug treatment MIC): 6.25 µM
TP4-3 and meropenem combined MIC ([17]; TP4-3 and M): 0.78 µM
MIC ([17]; Pseudomonas aeruginosa): 0.39 µM (≈ 0.15 µg/mL)

CC[C@H](C)[C@H](NC(=O)[C@@H](NC(=O)[C@@H](N)Cc1ccccc1)[C@@H](C)CC)C(=O)N[C@]1(C)CCCC=CCCC[C@](C)(C(=O)NCC(=O)N[C@@H](CC(C)C)C(=O)N[C@@H](Cc2ccccc2)C(=O)N[C@@H](CCCCN)C(=O)N[C@@H](CCCCN)C(=O)N[C@@H](CCCCN)C(=O)N[C@@H](C)C(=O)NCC(=O)N[C@@H](C)C(=O)N[C@]2(C)CCCC=CCCC[C@](C)(C(=O)N[C@H](C(=O)N[C@@H](CCCCN)C(=O)N[C@@H](CCCCN)C(=O)O)[C@@H](C)CC)NC(=O)[C@H](CCCCN)NC(=O)[C@H](CCCCN)NC(=O)[C@H](CCCCN)NC2=O)NC(=O)[C@H](CO)NC(=O)[C@H](CCCCN)NC(=O)[C@H](CCCCN)NC1=O [TP4-3] (H-FII[R5]KKS[R5]GLFKKKAGA[R5]KKK[R5]IKK-OH; staple 4-8, 18-22; N-terminus and C-terminus assumed)
MBC ([1]; MDR 1019): 12.5 µM (≈ 36.1 µg/mL)
MIC ([1]; MDR 1019): 12.5 µM (≈ 36.1 µg/mL)
MBC ([2]; MDR 1033): 6.25 to 12.5 µM
MIC ([2]; MDR 1033): 6.25 to 12.5 µM
MBC ([3]; MDR 14B0091): 3.13 µM (≈ 9.05 µg/mL)
MIC ([3]; MDR 14B0091): 3.13 µM (≈ 9.05 µg/mL)
MBC ([4]; MDR 1702): 3.13 to 6.25 µM
MIC ([4]; MDR 1702): 3.13 to 6.25 µM
MBC ([5]; MDR 2088): 6.25 µM (≈ 18.1 µg/mL)
MBC ([6]; MDR 2962): 12.5 µM (≈ 36.1 µg/mL)
MIC ([6]; MDR 2962): 6.25 µM (≈ 18.1 µg/mL)
MBC ([7]; MDR 2997): 3.13 to 6.25 µM
MIC ([7]; MDR 2997): 3.13 to 6.25 µM
MBC ([8]; MDR 2998): 12.5 µM (≈ 36.1 µg/mL)
MBC ([9]; MDR 3618): 12.5 µM (≈ 36.1 µg/mL)
MBC ([10]; MDR 921): 6.25 µM (≈ 18.1 µg/mL)
MIC ([10]; MDR 921): 6.25 µM (≈ 18.1 µg/mL)
mature biofilm rupture [11]: minor potential for causing biofilm rupture
serum IL-6 level [12, 24]: lower levels
serum IL-10 level [12, 24]: higher level
serum IL-12 level [12, 24]: no difference
serum IL-18 level [12, 24]: lower levels
serum MCP-1 level [12, 24]: lower levels
serum TNF-α level [12, 24]: lower levels
kidney (BUN, CRE) and liver function (GOT, GPT) [12]: significantly improved
bacterial burden in peritoneal lavage fluid [12, 25]: no significant difference
decrease of bacterial burden, blood [12, 25]: 54%
decrease of bacterial burden, kidney [12, 25]: 51%
decrease of bacterial burden, liver [12, 25]: 61%
decrease of bacterial burden, lung [12, 25]: 51%
decrease of bacterial burden, spleen [12, 25]: 55%
bacterial burdens in the blood, lung, and liver ([12]; 72 h post-treatment, compared to CLP + saline): lower bacterial burdens
survival [12]: 87.5%
TP4-3 and meropenem combined MIC ([13]; TP4-3 and D): 6.25 µM
TP4-3 and meropenem combined MIC ([13]; TP4-3 and M): 6.25 µM
MIC ([13]; NDM1): 25 µM (≈ 72.3 µg/mL)
TP4-3 and meropenem combined MIC ([14]; TP4-3 and D): 3.13 µM
TP4-3 and meropenem combined MIC ([14]; TP4-3 and M): 0.78 µM
MIC [14]: 25 µM (≈ 72.3 µg/mL)
TP4-3 and meropenem combined MIC ([15]; TP4-3 and D): 6.25 µM
TP4-3 and meropenem combined MIC ([15]; TP4-3 and M): 0.78 µM
MIC [15]: 25 µM (≈ 72.3 µg/mL)
TP4-3 and meropenem combined MIC [16]: 0.39 µM
TP4-3 and meropenem combined MIC ([17]; TP4-3 and D): 6.25 µM
TP4-3 and meropenem combined MIC ([17]; TP4-3 and M): 0.78 µM
MIC [17]: 25 µM (≈ 72.3 µg/mL)
